# Laboratory results published in paper PMC11087268, “A folate inhibitor exploits metabolic differences in Pseudomonas aeruginosa for narrow-spectrum targeting” (Nature Microbiology, 2024).
# Like-named read-outs stand apart in the source and are kept apart here.
# Columns and labels:
# sheep red blood cells = assay: Haemolysis; type: cell-based; settings: 1 h, vs Triton X-100 100% lysis
# Protocol: Samples were treated at 37 °C with shaking for 1 h and then centrifuged. Supernatants were collected and absorbances were measured at 405 nm in a Tecan InfiniteM200 Pro microplate reader.
# [1] = test system: P. aeruginosa clinical isolates; type: cell-based, Pseudomonas aeruginosa; settings: for clinical isolates resistant: 77 P. aeruginosa clinical isolates (55 CDC/FDA, 22 blood), 50 μg ml^−1, growth inhibition >80% = sensitive; for % Growth: 50ug/mL
# Protocol: Percent growth was calculated by dividing the OD600 of fluorofolin antibiotic-treated wells by that of vehicle-only wells.
compound,measurement,setting,value
CC(C)c1ccc(Cn2ccc3c4c(N)nc(NC5CC5)nc4ccc32)cc1 [SCH-79797],"% Hemolysis, Mean",sheep red blood cells; 0.78125 ug/mL,0.2789%
same,"% Hemolysis, Mean",sheep red blood cells; 1.5625 ug/mL,-0.7082%
same,"% Hemolysis, Mean",sheep red blood cells; 3.125 ug/mL,-0.9423%
same,"% Hemolysis, Mean",sheep red blood cells; 6.25 ug/mL,0.9543%
same,"% Hemolysis, Mean",sheep red blood cells; 12.5 ug/mL,20.9447%
same,"% Hemolysis, Mean",sheep red blood cells; 25 ug/mL,53.6334%
same,"% Hemolysis, Mean",sheep red blood cells; 50 ug/mL,64.7041%
C[C@@H](O)[C@H]1C(=O)N2C(C(=O)O)=C(S[C@@H]3CN[C@H](C(=O)N(C)C)C3)[C@H](C)[C@H]12 [meropenem],clinical isolates resistant,[1],74.0%
same,% Growth,[1]; Isolate# 1,113.227%
same,% Growth,[1]; Isolate# 2,104.859%
same,% Growth,[1]; Isolate# 3,93.4328%
same,% Growth,[1]; Isolate# 4,45.5006%
same,% Growth,[1]; Isolate# 5,93.4656%
same,% Growth,[1]; Isolate# 6,77.5947%
same,% Growth,[1]; Isolate# 7,101.901%
same,% Growth,[1]; Isolate# 8,45.9194%
same,% Growth,[1]; Isolate# 9,53.5808%
same,% Growth,[1]; Isolate# 10,5.367%
same,% Growth,[1]; Isolate# 11,99.5105%
same,% Growth,[1]; Isolate# 12,98.7175%
same,% Growth,[1]; Isolate# 13,37.9571%
same,% Growth,[1]; Isolate# 14,104.583%
same,% Growth,[1]; Isolate# 15,111.823%
same,% Growth,[1]; Isolate# 16,82.8716%
same,% Growth,[1]; Isolate# 17,101.338%
same,% Growth,[1]; Isolate# 18,69.0131%
same,% Growth,[1]; Isolate# 19,139.474%
same,% Growth,[1]; Isolate# 20,102.365%
same,% Growth,[1]; Isolate# 21,105.977%
same,% Growth,[1]; Isolate# 22,100%
same,% Growth,[1]; Isolate# 23,99.084%
same,% Growth,[1]; Isolate# 24,101.66%
same,% Growth,[1]; Isolate# 25,0.3832%
same,% Growth,[1]; Isolate# 26,108.084%
same,% Growth,[1]; Isolate# 27,90.2732%
same,% Growth,[1]; Isolate# 28,50.4713%
same,% Growth,[1]; Isolate# 29,81.8075%
same,% Growth,[1]; Isolate# 30,25.5041%
same,% Growth,[1]; Isolate# 31,2.581%
same,% Growth,[1]; Isolate# 32,49.1417%
same,% Growth,[1]; Isolate# 33,0%
same,% Growth,[1]; Isolate# 34,7.796%
same,% Growth,[1]; Isolate# 35,0.5421%
same,% Growth,[1]; Isolate# 36,34.6796%
same,% Growth,[1]; Isolate# 37,97.561%
same,% Growth,[1]; Isolate# 38,159.815%
same,% Growth,[1]; Isolate# 39,38.9532%
same,% Growth,[1]; Isolate# 40,99.0807%
same,% Growth,[1]; Isolate# 41,94.6179%
same,% Growth,[1]; Isolate# 42,57.1194%
same,% Growth,[1]; Isolate# 43,47.1218%
same,% Growth,[1]; Isolate# 44,108.201%
same,% Growth,[1]; Isolate# 45,95.4718%
same,% Growth,[1]; Isolate# 46,98.3594%
same,% Growth,[1]; Isolate# 47,114.345%
same,% Growth,[1]; Isolate# 48,88.9096%
same,% Growth,[1]; Isolate# 49,96.2021%
same,% Growth,[1]; Isolate# 50,122.491%
same,% Growth,[1]; Isolate# 51,46.991%
same,% Growth,[1]; Isolate# 52,2.293%
same,% Growth,[1]; Isolate# 53,3.543%
same,% Growth,[1]; Isolate# 54,4.738%
same,% Growth,[1]; Isolate# 55,0%
same,% Growth,[1]; Isolate# 56,121.285%
same,% Growth,[1]; Isolate# 57,61.1775%
same,% Growth,[1]; Isolate# 58,74.7799%
same,% Growth,[1]; Isolate# 59,114.529%
same,% Growth,[1]; Isolate# 60,144.06%
same,% Growth,[1]; Isolate# 61,63.8412%
same,% Growth,[1]; Isolate# 62,95.6203%
same,% Growth,[1]; Isolate# 63,0%
same,% Growth,[1]; Isolate# 64,0.5899%
same,% Growth,[1]; Isolate# 65,0.9518%
same,% Growth,[1]; Isolate# 66,19.8024%
same,% Growth,[1]; Isolate# 67,10.308%
same,% Growth,[1]; Isolate# 68,0.6936%
same,% Growth,[1]; Isolate# 69,5.952%
same,% Growth,[1]; Isolate# 70,25.3374%
same,% Growth,[1]; Isolate# 71,98.2336%
same,% Growth,[1]; Isolate# 72,90.6634%
same,% Growth,[1]; Isolate# 73,0%
same,% Growth,[1]; Isolate# 74,128.066%
same,% Growth,[1]; Isolate# 75,2.406%
same,% Growth,[1]; Isolate# 76,11.0259%
same,% Growth,[1]; Isolate# 77,28.4071%
gentamycin,clinical isolates resistant,[1],35.0%
same,% Growth,[1]; Isolate# 1,0.6518%
same,% Growth,[1]; Isolate# 2,105.422%
same,% Growth,[1]; Isolate# 3,61.3464%
same,% Growth,[1]; Isolate# 4,179.172%
same,% Growth,[1]; Isolate# 5,0%
same,% Growth,[1]; Isolate# 6,89.7261%
same,% Growth,[1]; Isolate# 7,110.349%
same,% Growth,[1]; Isolate# 8,97.3307%
same,% Growth,[1]; Isolate# 9,0%
same,% Growth,[1]; Isolate# 10,0%
same,% Growth,[1]; Isolate# 11,111.492%
same,% Growth,[1]; Isolate# 12,30.6669%
same,% Growth,[1]; Isolate# 13,9.611%
same,% Growth,[1]; Isolate# 14,99.0331%
same,% Growth,[1]; Isolate# 15,99.6274%
same,% Growth,[1]; Isolate# 16,86.3373%
same,% Growth,[1]; Isolate# 17,0.5763%
same,% Growth,[1]; Isolate# 18,84.8111%
same,% Growth,[1]; Isolate# 19,0%
same,% Growth,[1]; Isolate# 20,92.394%
same,% Growth,[1]; Isolate# 21,106.701%
same,% Growth,[1]; Isolate# 22,98.4485%
same,% Growth,[1]; Isolate# 23,0%
same,% Growth,[1]; Isolate# 24,0%
same,% Growth,[1]; Isolate# 25,0%
same,% Growth,[1]; Isolate# 26,111.123%
same,% Growth,[1]; Isolate# 27,88.2969%
same,% Growth,[1]; Isolate# 28,0%
same,% Growth,[1]; Isolate# 29,0%
same,% Growth,[1]; Isolate# 30,1.897%
same,% Growth,[1]; Isolate# 31,0%
same,% Growth,[1]; Isolate# 32,104.806%
same,% Growth,[1]; Isolate# 33,0%
same,% Growth,[1]; Isolate# 34,0%
same,% Growth,[1]; Isolate# 35,0%
same,% Growth,[1]; Isolate# 36,0%
same,% Growth,[1]; Isolate# 37,95.3633%
same,% Growth,[1]; Isolate# 38,100.4%
same,% Growth,[1]; Isolate# 39,0%
same,% Growth,[1]; Isolate# 40,0%
same,% Growth,[1]; Isolate# 41,0%
same,% Growth,[1]; Isolate# 42,0%
same,% Growth,[1]; Isolate# 43,82.8316%
same,% Growth,[1]; Isolate# 44,5.792%
same,% Growth,[1]; Isolate# 45,88.2389%
same,% Growth,[1]; Isolate# 46,13.0256%
same,% Growth,[1]; Isolate# 47,70.0551%
same,% Growth,[1]; Isolate# 48,0%
same,% Growth,[1]; Isolate# 49,0%
same,% Growth,[1]; Isolate# 50,2.976%
same,% Growth,[1]; Isolate# 51,0%
same,% Growth,[1]; Isolate# 52,0%
same,% Growth,[1]; Isolate# 53,0%
same,% Growth,[1]; Isolate# 54,0.0248%
same,% Growth,[1]; Isolate# 55,142.857%
same,% Growth,[1]; Isolate# 56,0%
same,% Growth,[1]; Isolate# 57,61.626%
same,% Growth,[1]; Isolate# 58,0.9683%
same,% Growth,[1]; Isolate# 59,34.5167%
same,% Growth,[1]; Isolate# 60,0%
same,% Growth,[1]; Isolate# 61,0%
same,% Growth,[1]; Isolate# 62,0%
same,% Growth,[1]; Isolate# 63,0%
same,% Growth,[1]; Isolate# 64,0%
same,% Growth,[1]; Isolate# 65,0%
same,% Growth,[1]; Isolate# 66,0%
same,% Growth,[1]; Isolate# 67,0%
same,% Growth,[1]; Isolate# 68,0%
same,% Growth,[1]; Isolate# 69,0.2922%
same,% Growth,[1]; Isolate# 70,0%
same,% Growth,[1]; Isolate# 71,0%
same,% Growth,[1]; Isolate# 72,106.187%
same,% Growth,[1]; Isolate# 73,0%
same,% Growth,[1]; Isolate# 74,0%
same,% Growth,[1]; Isolate# 75,0%
same,% Growth,[1]; Isolate# 76,0.1836%
same,% Growth,[1]; Isolate# 77,1.314%
